Reference: US11602518B2, “Lipidic furan, pyrrole, and thiophene compounds for use in the treatment of atrophic vaginitis” (Avoscience, LLC, priority 2016, dated 2023)

Tested on: female subjects diagnosed with vaginal atrophy
Assay: Double blind placebo control study: tissue morphometry by vaginal biopsy after topical Formula I(n) capsules
Type: in vivo, human
Source text: The histology and morphometry of vaginal atrophy is characterized by a reduction in dermal and epidermal thickness, dermal collagen content (hydroxyproline), the number of cells in the tissue (by DNA content and histology), and dermal and epidermal protein content as well as reduction in overall dermal metabolism as measured by [^14 C]-glucose. These parameters are all increased by the action of topical administration of Formula I(n).
In a double blind placebo control study, a baseline tissue morphometry was determined by biopsy on 20 female subjects diagnosed with vaginal atrophy. Subjects applied a capsule daily containing either Formula I(n) (3%) and avocado oil or simply a capsule of avocado oil alone.

[1] = biopsy after 60 days, daily capsule 3% in avocado oil
[2] = biopsy after 60 days, daily capsule 3% in avocado oil, over control

## CCCCC/C=C\C/C=C\CCCCCCCc1ccco1 [Formula I(n), 2-(8Z,11Z-heptadecadienyl)furan]
Biopsy after 60 days vs baseline, daily capsule 3% in avocado oil, control vehicle 7%
  increase in dermal thickness: 53%
Biopsy after 60 days vs baseline, daily capsule 3% in avocado oil, control vehicle 9%
  increase in epidermal thickness: 76%
[1]
  Dermal fibroblast population (cross section) increase: 231%
  Dermal fibroblast population (number) increase: 127%
  increase in aerobic glucose utilization or metabolism: 413%
  increase in total thickness (epidermal and dermal combined): 156%
[2]
  DNA content increase over control: 68%
  Dermal collagen content increase over control: 74%
  Protein content increase over control: 122%
Biopsy after 60 days, daily topical capsule, Formula I(n) (3%) and avocado oil
  inflammatory response: No observable inflammatory response
Topical administration, summary statement
  dermal and epidermal thickness, dermal collagen content, number of cells, dermal and epidermal protein content, overall dermal metabolism: increased
